Test results from patent US9247759B2, “Identification of human T2R receptors that respond to bitter compounds that elicit the bitter taste in compositions, and the use thereof in assays to identify compounds that inhibit (block) bitter taste in compositions and use thereof” (SENOMYX, INC., priority 2007, dated 2016).
Where “and” joins values, the source holds several entries; their conditions need not be identical. Identical values can stand only once. Like-named read-outs stand apart in the source and are kept apart here.

Key:
hT2R64 = hT2R64 (Homo sapiens (Human), UniProt P59538); test: hT2R panel inhibition, transient HEK293 G16g44, agonist Aristolochic Acid 1 μM; assay type: cell-based; conditions: HEK293, compound at 25 μM
Summary of the method: (§1)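 Each of 22 human bitter receptors was expressed individually by transient transfection in cells stably carrying the promiscuous G protein. Agonists were applied at EC80, and inhibition was scored as the drop in receptor activity with the test compound present.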

hT2R14 [1] = molecular target: T1, hT2R14 (Homo sapiens (Human), UniProt Q9NYV8); test: hT2R14 antagonist high-throughput FLIPR assay, stable cell line with G16g44, agonist aristolochic acid; assay type: cell-based; conditions: read-out: IC50 on hT2R14 bitter receptor
Summary of the method: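 HEK293 cells stably expressing hT2R14 with chimeric G16g44 were stimulated with aristolochic acid (3 μM), giving 70-80% of maximal receptor activity. Test compounds were added together with the agonist, and antagonism was read as fluorescent calcium signal on FLIPR.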

hT2R65 = test: hT2R panel inhibition, transient HEK293 G16g44, agonist Oleuropein 1 mM; assay type: cell-based, human; conditions: compound at 25 μM
Summary of the method: as §1

hT2R63 = test: hT2R panel inhibition, transient HEK293 G16g44, agonist Caffeine 1 mM or Andrographolide 100 μM; assay type: cell-based, human; conditions: compound at 25 μM; for screening result against bitter receptor 63: receptor activated to EC80 with the corresponding agonist
Summary of the method: as §1

hT2R5 = hT2R5 (Homo sapiens (Human), UniProt Q9NYW4); test: hT2R panel inhibition, transient HEK293 G16g44, agonist Picoline 10 mM; assay type: cell-based; conditions: HEK293, compound at 25 μM
Summary of the method: as §1

hT2R4 = hT2R4 (Homo sapiens (Human), UniProt Q9NYW5); test: hT2R panel inhibition, transient HEK293 G16g44, agonist Chloroquine pH6.5 5 mM; assay type: cell-based; conditions: HEK293, compound at 25 μM
Experimental: (§2) Specifically, in order to evaluate the inhibitory selectivity of the Compound C compound, this compound was tested against 22 human T2Rs which were deorphaned by Senomyx. These receptors and the bitter ligands that activate these human T2Rs are reported in earlier patent applications which are incorporated by reference herein. These 22 human T2Rs are hT2R1, 3, 4, 5, 7, 8, 9, 10, 13, 14, 16, 44, 51, 54, 55, 61, 63, 64, 65, 67, 71 and 75. The amino acid and nucleic acid sequences of all of these T2Rs may be found in these earlier patent applications. These human T2Rs were each individually transiently transfected into HEK293 cells that stably express the promiscuous G protein G16g44 and functional assays were effected using these receptors as disclosed in these same patent applications. […] The ligands were used at EC80 concentration levels. The list of bitter ligands utilized and the tested ligand concentrations are contained in Table 5 of this example.
(§3) Relating to the foregoing, FIG. 5 contains experimental results wherein Compound C was tested with different agonist compounds. The inhibition activity is represented by the reduction of receptor activity in the presence of Compound C. […] These 13 hT2Rs are hT2R3, 7, 10, 14, 16, 44, 51, 55, 61, 63, 64, 65, and 71.

hT2R16 = hT2R16 (Homo sapiens (Human), UniProt Q9NYV7); test: hT2R panel inhibition, transient HEK293 G16g44, agonist Salicin 1 mM; assay type: cell-based; conditions: HEK293, compound at 25 μM
Summary of the method: as §1

hT2R3 = hT2R3 (Homo sapiens (Human), UniProt Q9NYW6); test: hT2R panel inhibition, transient HEK293 G16g44, agonist Chloroquine pH6.5 50 μM; assay type: cell-based; conditions: HEK293, compound at 25 μM
Summary of the method: as §1

hT2R7 = hT2R7 (Homo sapiens (Human), UniProt Q9NYW3); test: hT2R panel inhibition, transient HEK293 G16g44, agonist Chloroquine pH6.5 10 mM; assay type: cell-based; conditions: HEK293, compound at 25 μM
Summary of the method: as §1

hT2R55 = test: hT2R panel inhibition, transient HEK293 G16g44, agonist Cinchonine 150 μM; assay type: cell-based, human; conditions: compound at 25 μM; for screening result against bitter receptor 55: receptor activated to EC80 with the corresponding agonist
Summary of the method: as §1

hT2R14 [2] = molecular target: T1, hT2R14; test: hT2R panel inhibition, transient HEK293 G16g44, agonist Aristolochic Acid 2 μM; assay type: cell-based; conditions: HEK293, compound at 25 μM
Summary of the method: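 Each hT2R was transiently transfected into HEK293 cells stably expressing G16g44 and assayed functionally for inhibition of agonist response. Agonists were applied at EC80: andrographolide at 0.5 mM for hT2R8 and aristolochic acid at 2 μM for hT2R14.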

hT2R71 = hT2R71 (Homo sapiens (Human), UniProt P59536); test: hT2R panel inhibition, transient HEK293 G16g44, agonist Picric Acid 10 μM; assay type: cell-based; conditions: HEK293, compound at 25 μM
Summary of the method: as §1

hT2R61 = hT2R61 (Homo sapiens (Human), UniProt P59537); test: hT2R panel inhibition, transient HEK293 G16g44, agonist Aristolochic Acid 25 nM; assay type: cell-based; conditions: HEK293, compound at 25 μM
Summary of the method: as §1

hT2R44 = test: hT2R panel inhibition, transient HEK293 G16g44, agonist Denatonium 0.5 μM; assay type: cell-based, human; conditions: compound at 25 μM; for screening result against bitter receptor 44: receptor activated to EC80 with the corresponding agonist
Summary of the method: as §1

hT2R75 = hT2R75 (Homo sapiens (Human), UniProt P59540); test: hT2R panel inhibition, transient HEK293 G16g44, agonist Strychnine 1 μM; assay type: cell-based; conditions: HEK293, read-out: screening result against bitter receptor 75, compound at 25 μM; receptor activated to EC80 with the corresponding agonist
Experimental: as §2, §3

hT2R10 = hT2R10 (Homo sapiens (Human), UniProt Q9NYW0); test: hT2R panel inhibition, transient HEK293 G16g44, agonist Strychnine 50 μM; assay type: cell-based
hT2R67 = test: hT2R panel inhibition, transient HEK293 G16g44, agonist Andrographolide 5 μM; assay type: cell-based, human; conditions: compound at 25 μM; receptor activated to EC80 with agonist
Summary of the method: as §1

hT2R51 = hT2R51 (Homo sapiens (Human), UniProt P59533); test: hT2R panel inhibition, transient HEK293 G16g44, agonist Prop 2.5 μM; assay type: cell-based; conditions: HEK293, compound at 25 μM
Summary of the method: as §1

hT2R54 = test: hT2R panel inhibition, transient HEK293 G16g44, agonist Ranitidine 5 mM; assay type: cell-based, human; conditions: compound at 25 μM
Summary of the method: as §1

[3] = receptor activated to EC80 with the corresponding agonist, read-out: screening result against bitter receptor 64
[4] = receptor activated to EC80 with the corresponding agonist
[5] = receptor activated to EC80 with the corresponding agonist, read-out: screening result against bitter receptor 5
[6] = receptor activated to EC80 with the corresponding agonist, class symbols, read-out: screening result against bitter receptor 4
[7] = receptor activated to EC80 with the corresponding agonist, read-out: screening result against bitter receptor 16
[8] = receptor activated to EC80 with the corresponding agonist, read-out: screening result against bitter receptor 3
[9] = receptor activated to EC80 with the corresponding agonist, read-out: screening result against bitter receptor 7
[10] = receptor activated to EC80 with the corresponding agonist, read-out: screening result against bitter receptor 14
[11] = receptor activated to EC80 with the corresponding agonist, read-out: screening result against bitter receptor 71
[12] = receptor activated to EC80 with the corresponding agonist, read-out: screening result against bitter receptor 61
[13] = HEK293, read-out: screening result against bitter receptor 10, compound at 25 μM, receptor activated to EC80 with the corresponding agonist
[14] = receptor activated to EC80 with agonist

Sequence of hT2R5 (Q9NYW4 whole entry): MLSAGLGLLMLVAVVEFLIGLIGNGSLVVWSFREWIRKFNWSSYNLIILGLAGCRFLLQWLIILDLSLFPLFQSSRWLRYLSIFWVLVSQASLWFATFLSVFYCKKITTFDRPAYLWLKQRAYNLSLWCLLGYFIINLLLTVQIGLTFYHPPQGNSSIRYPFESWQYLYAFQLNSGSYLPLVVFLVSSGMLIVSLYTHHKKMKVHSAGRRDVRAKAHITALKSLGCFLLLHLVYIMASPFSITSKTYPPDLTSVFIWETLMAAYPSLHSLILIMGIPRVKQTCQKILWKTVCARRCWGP
Sequence of hT2R10 (Q9NYW0 whole entry): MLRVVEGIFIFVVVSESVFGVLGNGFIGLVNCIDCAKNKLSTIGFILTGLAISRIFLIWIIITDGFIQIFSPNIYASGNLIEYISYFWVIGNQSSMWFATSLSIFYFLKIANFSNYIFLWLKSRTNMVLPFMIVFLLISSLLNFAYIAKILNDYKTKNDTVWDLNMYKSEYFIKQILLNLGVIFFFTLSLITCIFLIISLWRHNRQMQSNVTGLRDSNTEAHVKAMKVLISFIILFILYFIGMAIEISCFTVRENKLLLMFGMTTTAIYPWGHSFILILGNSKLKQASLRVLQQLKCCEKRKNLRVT
Sequence of hT2R71 (P59536 whole entry): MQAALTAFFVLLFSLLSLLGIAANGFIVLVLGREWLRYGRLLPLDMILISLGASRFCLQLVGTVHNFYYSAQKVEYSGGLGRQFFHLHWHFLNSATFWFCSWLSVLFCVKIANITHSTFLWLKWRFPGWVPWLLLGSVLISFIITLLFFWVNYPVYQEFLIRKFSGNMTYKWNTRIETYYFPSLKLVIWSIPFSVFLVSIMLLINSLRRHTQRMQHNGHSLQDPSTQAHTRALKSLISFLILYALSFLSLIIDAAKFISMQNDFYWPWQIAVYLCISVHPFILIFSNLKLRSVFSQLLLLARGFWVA
Sequence of hT2R4 (Q9NYW5 whole entry): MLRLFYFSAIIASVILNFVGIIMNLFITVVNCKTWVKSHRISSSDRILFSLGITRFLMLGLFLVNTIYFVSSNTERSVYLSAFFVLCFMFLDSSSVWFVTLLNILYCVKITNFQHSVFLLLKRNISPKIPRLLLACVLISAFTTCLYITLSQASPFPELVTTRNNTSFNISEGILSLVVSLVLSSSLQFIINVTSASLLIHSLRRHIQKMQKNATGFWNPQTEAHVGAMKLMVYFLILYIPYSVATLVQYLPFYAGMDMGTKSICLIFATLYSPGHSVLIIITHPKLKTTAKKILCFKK
Sequence of hT2R16 (Q9NYV7 whole entry): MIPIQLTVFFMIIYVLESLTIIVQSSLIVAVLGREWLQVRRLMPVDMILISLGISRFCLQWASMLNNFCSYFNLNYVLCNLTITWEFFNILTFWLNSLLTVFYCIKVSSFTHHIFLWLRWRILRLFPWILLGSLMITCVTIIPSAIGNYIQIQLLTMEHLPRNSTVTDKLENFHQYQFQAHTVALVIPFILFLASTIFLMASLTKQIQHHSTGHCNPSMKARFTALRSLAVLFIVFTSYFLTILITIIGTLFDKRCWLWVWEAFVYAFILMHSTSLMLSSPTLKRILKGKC
Sequence of hT2R64 (P59538 whole entry): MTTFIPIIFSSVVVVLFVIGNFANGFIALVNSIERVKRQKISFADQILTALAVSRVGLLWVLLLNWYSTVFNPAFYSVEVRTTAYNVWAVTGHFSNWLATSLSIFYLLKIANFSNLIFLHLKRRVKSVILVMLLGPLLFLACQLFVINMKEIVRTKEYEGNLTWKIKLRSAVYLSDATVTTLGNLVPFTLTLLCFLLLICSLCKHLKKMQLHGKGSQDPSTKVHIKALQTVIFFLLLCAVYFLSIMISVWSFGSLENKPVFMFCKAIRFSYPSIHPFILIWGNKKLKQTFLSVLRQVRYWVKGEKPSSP
Sequence of hT2R7 (Q9NYW3 whole entry): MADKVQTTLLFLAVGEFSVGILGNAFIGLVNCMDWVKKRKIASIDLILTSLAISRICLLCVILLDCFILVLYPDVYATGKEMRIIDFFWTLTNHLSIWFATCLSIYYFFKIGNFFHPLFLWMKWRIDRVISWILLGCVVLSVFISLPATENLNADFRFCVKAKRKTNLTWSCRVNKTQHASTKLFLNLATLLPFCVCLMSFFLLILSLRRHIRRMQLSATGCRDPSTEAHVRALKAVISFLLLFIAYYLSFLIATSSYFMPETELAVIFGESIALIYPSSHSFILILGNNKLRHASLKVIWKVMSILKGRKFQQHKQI
Sequence of hT2R61 (P59537 whole entry): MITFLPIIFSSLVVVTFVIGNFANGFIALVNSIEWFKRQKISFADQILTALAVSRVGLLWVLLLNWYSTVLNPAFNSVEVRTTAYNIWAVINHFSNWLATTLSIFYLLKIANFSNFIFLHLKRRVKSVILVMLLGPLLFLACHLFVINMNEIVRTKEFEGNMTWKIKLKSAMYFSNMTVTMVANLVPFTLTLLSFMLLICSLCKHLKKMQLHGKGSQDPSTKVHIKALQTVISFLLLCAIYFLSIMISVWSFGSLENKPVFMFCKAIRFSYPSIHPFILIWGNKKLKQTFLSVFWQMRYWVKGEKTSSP
Sequence of hT2R3 (Q9NYW6 whole entry): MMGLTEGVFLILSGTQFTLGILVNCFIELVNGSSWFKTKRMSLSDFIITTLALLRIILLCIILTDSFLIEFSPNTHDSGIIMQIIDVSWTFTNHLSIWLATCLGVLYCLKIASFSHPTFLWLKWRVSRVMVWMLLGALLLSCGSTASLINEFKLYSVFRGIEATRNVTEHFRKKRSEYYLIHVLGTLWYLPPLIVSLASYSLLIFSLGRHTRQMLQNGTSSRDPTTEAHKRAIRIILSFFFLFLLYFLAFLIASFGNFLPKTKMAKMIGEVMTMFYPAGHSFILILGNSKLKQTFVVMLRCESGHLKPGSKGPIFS
T1 sequence (Q9NYV8 whole entry): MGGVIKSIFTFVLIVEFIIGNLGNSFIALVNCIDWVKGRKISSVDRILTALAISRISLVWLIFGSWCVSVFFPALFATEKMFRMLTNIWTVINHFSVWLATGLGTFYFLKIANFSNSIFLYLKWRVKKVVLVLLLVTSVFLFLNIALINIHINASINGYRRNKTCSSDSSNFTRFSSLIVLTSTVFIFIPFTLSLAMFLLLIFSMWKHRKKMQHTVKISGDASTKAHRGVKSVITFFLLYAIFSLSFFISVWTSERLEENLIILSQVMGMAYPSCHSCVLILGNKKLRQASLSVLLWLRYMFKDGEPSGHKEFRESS
Sequence of hT2R75 (P59540 whole entry): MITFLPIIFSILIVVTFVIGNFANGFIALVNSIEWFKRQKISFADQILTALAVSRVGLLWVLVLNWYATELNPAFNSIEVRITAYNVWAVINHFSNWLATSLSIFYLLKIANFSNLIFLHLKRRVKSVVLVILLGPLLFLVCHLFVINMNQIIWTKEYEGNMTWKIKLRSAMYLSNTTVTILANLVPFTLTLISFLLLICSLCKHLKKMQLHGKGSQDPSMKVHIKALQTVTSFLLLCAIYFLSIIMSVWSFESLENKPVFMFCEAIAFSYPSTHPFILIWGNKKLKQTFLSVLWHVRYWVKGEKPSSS
Sequence of hT2R51 (P59533 whole entry): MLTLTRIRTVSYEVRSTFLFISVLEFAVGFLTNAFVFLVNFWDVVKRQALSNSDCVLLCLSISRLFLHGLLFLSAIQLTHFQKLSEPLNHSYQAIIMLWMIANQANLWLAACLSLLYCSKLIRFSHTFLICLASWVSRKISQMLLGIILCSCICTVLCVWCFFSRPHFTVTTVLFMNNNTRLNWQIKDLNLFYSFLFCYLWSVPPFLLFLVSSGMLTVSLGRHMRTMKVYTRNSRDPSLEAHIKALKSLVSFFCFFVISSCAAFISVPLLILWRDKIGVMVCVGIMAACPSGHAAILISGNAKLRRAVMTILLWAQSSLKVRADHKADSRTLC

SMILES	inhibition at 25 µM (hT2R64; [3]) [%]	IC50 (hT2R14 [1])	screening result against bitter receptor 63 (hT2R63)	inhibition at 25 µM (hT2R4; [6]) [%]	inhibition at 25 µM (hT2R16; [7]) [%]	inhibition at 25 µM (hT2R3; [8]) [%]	inhibition at 25 µM (hT2R7; [9]) [%]	screening result against bitter receptor 55 (hT2R55)	inhibition at 25 µM (hT2R14 [2]; [10]) [%]	inhibition at 25 µM (hT2R71; [11]) [%]	inhibition at 25 µM (hT2R61; [12]) [%]	screening result against bitter receptor 44 (hT2R44)	inhibition at 25 µM (hT2R10; [13]) [%]	other results
Cc1ccc(S(=O)(=O)N(Cc2ccc(F)cc2)Cc2ccc(C(=O)O)cc2)cc1 [Example 5-37, 4-((N-(4-fluorobenzyl)-4-methylphenylsulfonamido)methyl)benzoic acid]	60 to 80	0.054 µM	+ (20% to 40% inhibition = +)	60 to 80	20 to 40	20 to 40	20 to 40	++++ (80% or greater inhibition = ++++)	> 80	–	–	–	–	screening result against bitter receptor 65 (hT2R65; [4]): ++ (40% to 60% inhibition = ++); inhibition at 25 µM (hT2R5; [5]): 20 to 40%
O=C(O)C1CCC(CN(Cc2ccc(F)cc2)S(=O)(=O)c2ccccn2)CC1 (stereo not shown) [Example 5-53, 4-((N-(4-fluorobenzyl)pyridine-2-sulfonamido)methyl)cyclohexanecarboxylic acid]	40 to 60	–	++ (40% to 60% inhibition = ++)	20 to 40	–	–	20 to 40	–	40 to 60	20 to 40	–	–	–	–
COc1ccc(CN(Cc2ccc(NC(C)=O)cc2)S(=O)(=O)c2ccc(C(=O)O)cc2)cc1 [Example 5-26, 4-(N-(4-acetamidobenzyl)-N-(4-methoxybenzyl)sulfamoyl)benzoic acid]	60 to 80	–	+++ (60% to 80% inhibition = +++)	40 to 60	–	–	20 to 40	–	–	20 to 40	20 to 40	+ (20% to 40% inhibition = +)	–	–
O=C(O)C1CCC(CN(Cc2ccc(F)cc2)S(=O)(=O)c2ccccc2)CC1 (stereo not shown) [Example 5-22, 4-((N-(4-fluorobenzyl)phenylsulfonamido)methyl)-cyclohexanecarboxylic acid]	40 to 60	0.24 µM	+++ (60% to 80% inhibition = +++)	40 to 60	20 to 40	40 to 60	20 to 40	+++ (60% to 80% inhibition = +++)	> 80	40 to 60	> 80	++ (40% to 60% inhibition = ++)	20 to 40	inhibition at 25 µM (hT2R75): 20 to 40%
CCN(Cc1ccc(OC)cc1)S(=O)(=O)c1ccc(C(=O)O)cc1 [Example 5-4, 4-(N-ethyl-N-(4-methoxybenzyl)sulfamoyl)benzoic acid]	> 80	20 µM and 10 µM	+++ (60% to 80% inhibition = +++)	20 to 40	–	–	–	++++ (80% or greater inhibition = ++++)	40 to 60	–	20 to 40	–	40 to 60	inhibition at 25 µM (hT2R75): 20 to 40%
CCOc1ccc(CN(Cc2ccccc2)S(=O)(=O)c2ccc(C(=O)O)cc2)cc1 [Example 5-108, 4-(N-benzyl-N-(4-ethoxybenzyl)sulfamoyl)benzoic acid]	–	–	–	–	–	–	–	–	–	–	–	–	–	inhibition at 25 µM (hT2R61; receptor activated to EC80 with agonist, read-out: inhibition of bitter receptor 61): > 80%; inhibition at 25 µM (hT2R64; receptor activated to EC80 with agonist, read-out: inhibition of bitter receptor 64): > 80%; inhibition of bitter receptor 67 (hT2R67): + (20% to 40% inhibition = +); inhibition of bitter receptor 65 (hT2R65; [14]): ++ (40% to 60% inhibition = ++); inhibition of bitter receptor 63 (hT2R63; [14]): +++ (60% to 80% inhibition = +++); inhibition at 25 µM (hT2R51; receptor activated to EC80 with agonist, read-out: inhibition of bitter receptor 51): 40 to 60%; inhibition of bitter receptor 44 (hT2R44; [14]): +++ (60% to 80% inhibition = +++); inhibition at 25 µM (hT2R71; receptor activated to EC80 with agonist, read-out: inhibition of bitter receptor 71): 60 to 80%; inhibition at 25 µM (hT2R5; receptor activated to EC80 with agonist, read-out: inhibition of bitter receptor 5): 20 to 40%; inhibition at 25 µM (hT2R4; receptor activated to EC80 with agonist, read-out: inhibition of bitter receptor 4): 60 to 80%; inhibition at 25 µM (hT2R16; receptor activated to EC80 with agonist, read-out: inhibition of bitter receptor 16): 20 to 40%; inhibition at 25 µM (hT2R3; receptor activated to EC80 with agonist, read-out: inhibition of bitter receptor 3): 40 to 60%; inhibition of bitter receptor 54 (hT2R54; [14]): + (20% to 40% inhibition = +); inhibition at 25 µM (hT2R7; receptor activated to EC80 with agonist, read-out: inhibition of bitter receptor 7): 20 to 40%; inhibition of bitter receptor 55 (hT2R55; [14]): ++++ (80% or greater inhibition = ++++); inhibition at 25 µM (hT2R10; HEK293, read-out: inhibition of bitter receptor 10, compound at 25 μM, receptor activated to EC80 with agonist): 40 to 60%; inhibition at 25 µM (hT2R14 [2]; receptor activated to EC80 with agonist, read-out: inhibition of bitter receptor 14): > 80%
O=C(O)C1CCC(CN(Cc2ccc(F)cc2)S(=O)(=O)Cc2ccccc2)CC1 (stereo not shown) [Example 5-24, 4-((N-(4-fluorobenzyl)-1-phenylmethylsulfonamido)methyl)-cyclohexanecarboxylic acid]	60 to 80	9.57 µM	+ (20% to 40% inhibition = +)	20 to 40	–	–	20 to 40	++ (40% to 60% inhibition = ++)	–	20 to 40	> 80	+ (20% to 40% inhibition = +)	–	–
COc1ccc(CN(Cc2ccc(OC)c(OC)c2)S(=O)(=O)c2ccc(C(=O)O)cc2)cc1 [Example 5-40, 4-(N-(3,4-dimethoxybenzyl)-N-(4-methoxybenzyl)sulfamoyl)benzoic acid]	60 to 80	1.47 µM	++++ (80% or greater inhibition = ++++)	20 to 40	20 to 40	20 to 40	–	++++ (80% or greater inhibition = ++++)	> 80	40 to 60	> 80	+++ (60% to 80% inhibition = +++)	40 to 60	inhibition at 25 µM (hT2R51; receptor activated to EC80 with the corresponding agonist, read-out: screening result against bitter receptor 51): 20 to 40%; inhibition at 25 µM (hT2R5; [5]): 20 to 40%; screening result against bitter receptor 54 (hT2R54; [4]): + (20% to 40% inhibition = +)
